How the values were obtained:
[1] = tested on: MM231; experiment: Cytotoxicity assay (MTT), MM231; assay type: cell-based, human; conditions: MM231 (breast cancer), 48 h exposure
Procedure: (§1) Five human tumor cell lines (HL-60, MM231, A-549, HEP3B, and SW480), together with one non-cancerous cell line, the human normal colonic epithelial cell NCM460, were used in the cytotoxic activity assay. All cells were cultured in DMEM or RPMI-1640 medium (HyClone, Logan, UT, USA), supplemented with 10% fetal bovine serum (HyClone) at 37 °C in a humidified atmosphere with 5% CO2. The cell survival assay was performed using the MTT method. Briefly, 100 μL suspended cells at an initial density of 1 × 10^5 cells/mL were seeded into each well of the 96-well culture plates and allowed to adhere for 12 h before addition of the test compounds. […] After incubation, culture supernatants were removed and exchanged with medium containing 0.5 mg/mL MTT. Then, after 4 h incubation in darkness at 37 °C, the medium was removed, and cells were added with 100 μL dimethyl sulfoxide. The absorbance at 570 nm was measured and data are expressed as averages of three replicates. The value of inhibition was calculated by using the following formula: % inhibition = (1 − ODtreated/ODcontrol) × 100. The IC50 values were calculated by using a standard dose-response curve fitting with Prism (version 5.0, GraphPad Software, La Jolla, CA, USA).

[2] = tested on: A-549; experiment: Cytotoxicity assay (MTT), A-549; assay type: cell-based, human; conditions: 48 h exposure
Procedure: as §1

[3] = tested on: HEP3B; experiment: Cytotoxicity assay (MTT), HEP3B; assay type: cell-based, human; conditions: HEP3B (hepatic cancer), 48 h exposure
Procedure: as §1

[4] = tested on: SW480; experiment: Cytotoxicity assay (MTT), SW480; assay type: cell-based, human; conditions: SW480 (colon cancer), 48 h exposure
Procedure: as §1

[5] = tested on: NCM460; experiment: Cytotoxicity assay (MTT), normal colonic epithelial cell NCM460; assay type: cell-based, human; conditions: for IC50: MTT, 48 h exposure
Procedure: as §1

[6] = tested on: HL-60; experiment: Cytotoxicity assay (MTT), HL-60; assay type: cell-based; conditions: Homo sapiens, HL-60 (acute leukemia), 48 h exposure
Procedure: as §1

[7] = Homo sapiens, A549, A-549 (lung cancer)

Compound | IC50 [1] | IC50 ([2]; A-549 (lung cancer)) | IC50 [3] | IC50 [4] | IC50 [5] | IC50 [6] | IC50 ([1]; Homo sapiens) | IC50 [2, 7] | IC50 ([3]; Homo sapiens) | IC50 ([4]; Homo sapiens) | IC50 ([5]; Homo sapiens) | cytotoxic activity against the NCM460 cell ([5]; result in words)
N.N.[Cl][Pt][Cl] [Cis-platin, cis-platin, reference compound] | 3.84 ± 0.25 µM | 2.79 ± 0.36 µM | 2.96 ± 0.22 µM | 1.42 ± 0.11 µM | 0.85 ± 0.07 µM |  |  |  |  |  |  | 
CC(=O)O[C@H]1C(=O)[C@@]2(C)[C@H]([C@H](OC(=O)c3ccccc3)[C@]3(O)C[C@H](OC(=O)[C@H](O)[C@@H](NC(=O)c4ccccc4)c4ccccc4)C(C)=C1C3(C)C)[C@]1(OC(C)=O)CO[C@@H]1C[C@@H]2O [Paclitaxel, paclitaxel, reference compound] |  |  |  |  |  | < 0.008 µM | < 0.008 µM | < 0.008 µM | < 0.008 µM | < 0.008 µM | < 0.008 µM | 
CC1=CC(O)C2C3(C)C(O)CC(=O)C(C)(C)C3CCC2(C)C12Cc1c(c(C)c(C)oc1=O)O2 (stereo not drawn) [compound 1, brevione O] |  |  |  |  |  | > 40 µM | > 40 µM | > 40 µM | > 40 µM | > 40 µM | > 40 µM | 
CC1=C[C@H](O)[C@@H]2[C@@]3(C)C=CC(=O)C(C)(C)[C@@H]3CC[C@@]2(C)[C@]12Cc1c(c(C)c(C)oc1=O)O2 [compound 2, brevione I] |  |  |  |  |  | 4.92 ± 0.65 µM | > 40 µM | 8.6 ± 1.36 µM | 5.5 ± 0.67 µM | 21.2 ± 2.72 µM | > 40 µM | no cytotoxic activity
CC1=C[C@H](O)[C@@H]2[C@@]3(C)CCC(=O)C(C)(C)[C@@H]3CC[C@@]2(C)[C@]12Cc1c(c(C)c(C)oc1=O)O2 [compound 3, brevione J] |  |  |  |  |  | 25.6 ± 3.84 µM | > 40 µM | > 40 µM | > 40 µM | > 40 µM | > 40 µM | 
CC1=CC(=O)C[C@@H]2O[C@@H]3C=C(C)[C@@]45Oc6c(C)c(C)oc(=O)c6[C@@H]4O[C@H](O)[C@]54CC[C@@H]1[C@@]2(C)[C@@H]34 [compound 4, brevione H] |  |  |  |  |  | > 40 µM | > 40 µM | > 40 µM | > 40 µM | > 40 µM | > 40 µM | 
C=CC(C)(C)C12CC3C(=O)NC(C(C)C)C(=O)N3C1N(C(C)=O)c1ccccc12 (stereo not drawn) [compound 5, brevicompanine G] |  |  |  |  |  | 21.8 ± 3.48 µM | > 40 µM | 18.4 ± 2.15 µM | > 40 µM | > 40 µM | > 40 µM | 

From article PMC5923397, “A New Breviane Spiroditerpenoid from the Marine-Derived Fungus Penicillium sp. TJ403-1” (Marine Drugs, 2018)
